Experiments:
HO-1 mRNA = details: blood i.c. + compound i.v. 1 mg/kg/min continuously for 2 days; basilar arterial walls, day 2; vs blood i.c.+saline i.v.
Method: The preparation of rat cerebral vasospasm model and the determination of HO-1 mRNA expression level were performed according to a documented method (see The Journal of Clinical Investigation, Vol. 104, No. 1, July 1999).
Each single hemorrhage model was injected with 0.5 ml autologous arterial blood into its cisterna magna. […] After administration, the level of mRNA expressed in basilar arterial walls was determined on day 2 using a quantitative RT-PCR technique.
It is for this reason that the mRNA expression level was determined on day 2.
All data were expressed as mean±SEM. The expression level of HO-2 was used as a denominator in calculating the ratio because the expression level of HO-2 was not assumed to change appreciably in this model and therefore, when used as a denominator, would enable changes in HO-1 expression level to be objectively evaluated while ignoring individual differences. […] The data were statistically processed according to variance analysis. A single asterisk (*) denotes a statistically significant difference from “saline i.c.” at p<0.05 level and two asterisks (**) denote a statistically significant difference from “blood i.c.+saline i.v.” at p<0.01 level.

HO-1 protein = details: after injection of autologous arterial blood; compound i.v. 2 days; basilar arterial walls, day 2
Text: The same animal model as in Example 1 was used to study changes in HO-1 protein expression level after the same treatment as shown in Example 1. The changes in protein expression level were detected by Coomassie staining and Western blotting, as described in the abovementioned reference. In this figure, the upper and lower panels show the results of Coomassie staining and Western blotting, respectively. Each of the lanes shown in FIG. 2 has the same definition as the corresponding sample in FIG. 1.

[1] = system: delayed cerebral vasospasm
Method: The same model as in Example 1 was used to study changes over time in basilar artery diameter. The determination of basilar artery diameter was performed as described in the above-mentioned reference. That is, the diameter was measured angiographically on days 1 to 7 and expressed as a % change from the original diameter (% change before treatment was set to 0).
All data were expressed as mean±SEM.
The data was statistically processed such that intragroup comparison was performed by paired t-test and intergroup comparison was performed according to variance analysis.

CC(CNC(=O)c1cccnc1)NC(=O)c1cccnc1 (stereo not shown) [1,2-bis(nicotinamide)propane]
HO-1 mRNA expression level (HO-1/HO-2 ratio) (HO-1 mRNA): significant increase in HO-1 mRNA expression level
HO-1 protein induction (HO-1 protein): causes or enhances HO-1 protein induction
delayed cerebral vasospasm (% change in basilar artery diameter) ([1]; blood i.c. + compound i.v. continuously for 7 days, angiography days 1 to 7): significant amelioration of delayed cerebral vasospasm
diameter of cerebral blood vessels in the absence of hemorrhage ([1]; saline i.c. + compound i.v. continuously for 7 days): not affected

Source: patent US20030032655A1, “Heme oxygenase-1 inducers or induction enhancers” (priority 2000, published 2003)
